Assay results: US5389644A, “1,4-dihydropyridine compounds” (priority 1992, dated 1995)

Legend:
[1] = test system: DC-3F/AD; assay: Cytotoxicity: reversal of resistance to actinomycin D (reversion factor), line DC-3F/AD; format: cell-based, Chinese hamster
Experimental: The parameter measured is the cytotoxicity of the antitumour drug, quantified in the absence and in the presence of the reversing compound. Two resistant cell lines were used: 1 Chinese hamster lung line, DC-3F/AD, the resistance of which was induced by actinomycin D. […] The compounds tested for their capacity to reverse the resistance are added at the same time as the cytotoxic agent. The cells are then incubated for 4 days.

[2] = test system: KB-A1; assay: Cytotoxicity: reversal of resistance to adriamycin (reversion factor), line KB-A1; format: cell-based, Human
Experimental: The parameter measured is the cytotoxicity of the antitumour drug, quantified in the absence and in the presence of the reversing compound. […] The compounds tested for their capacity to reverse the resistance are added at the same time as the cytotoxic agent. The cells are then incubated for 4 days.

[3] = test system: KB-A1; assay: Flow cytometry: intracellular accumulation of ADR, line KB-A1; format: cell-based, Human; details: ADR 50 μM, 5 hours
Experimental: Also measured was the effect of the compounds on the intracellular concentration of adriamycin. […] By measuring that fluorescence, it is thus possible to obtain a relative measurement of the intracellular concentration of ADR. […] The cells (5×10^5 per ml) were exposed simultaneously to ADR at a fixed concentration (50 μM) and to the tested compounds at various concentrations. After 5 hours' incubation, the intracellular accumulation of ADR was evaluated by FCM. […] The results were presented in the form of linear histograms of the intracellular ADR fluorescence. Expression of the results: for each of the histograms the mean fluorescence per channel (MEAN) was determined by the computer of the apparatus. For all experiments: a negative control (cells without ADR) fixed the autofluorescence threshold. a positive control (cells with ADR) determined the MEAN value=MN1. the "test" tubes (cells with ADR and with compound) were used to determine, for each of the compounds and at each of the concentrations, the MEAN values=MN2. The results are expressed in the form of variations from the mean fluorescence obtained for each of the "test" tubes (MN2) in relation to the mean fluorescence obtained with the positive control (MN1): VAR-MEAN=MN2-MN1. The measured parameter is thus the increase in ADR fluorescence in the presence of the tested compounds.

[4] = test system: P 388/VCR; assay: In vivo increase in antitumour activity of vincristine, resistant line P 388/VCR; parameters: species or system murine leukaemia in female B6D2F1 mice
Text: This study was completed by an in vivo study, using a murine leukaemia resistant to vincristine (P 388/VCR) and using the compounds of the present invention in association with vincristine.
(§1) The sensitive parent line P 388 (murine leukaemia) and the sub-line resistant to vincristine, P 388/VCR, were supplied by NCI (Frederick, USA). The tumour cells (10^6 cells) were inoculated on day 0 into the indraperitoneal cavity of female B6D2F1 mice (Iffa Credo, France) weighing from 18 to 20 g (groups of 8 to 10 animals).
Every day for 4 days, starting from day 1, the animals received:
an administration of 25 to 150 mg/kg by i.p., p.o. or i.v. route of the compound of the present invention to be tested, as mentioned in the table 4a; then
(§2) 30 to 60 minutes later, an administration by the i.p. route of 0.25 mg/kg of vincristine (used as a reference antitumour agent).
(§3) The antitumour activity is expressed as follows: [formula]
(§4) The values are mean values obtained in independent experiments (# sem when n is greater than or equal to 3).

[5] = test system: P 388; assay: In vivo increase in antitumour activity of vincristine, sensitive line P388; parameters: species or system murine leukaemia in female B6D2F1 mice; details: compound 150 mg/kg p.o.
Experimental: as §1
Every day for 4 days, starting from day 1, the animals received: […]
as §2, §3, §4
Using the sensitive line (P388) the tested compounds of the invention increase considerably the sensitivity of the cells to vincristine.

[6] = with VCR […] i.p., compound 50 mg/kg i.p.
[7] = with VCR […] i.p., compound 150 mg/kg p.o.

Row | Compound | reversion factor (RF) ([1]; compound 1 μM) | reversion factor (RF) ([1]; compound 5 μM) | reversion factor (RF) ([2]; compound 1 μM) | reversion factor (RF) ([2]; compound 5 μM) | increase in the ADR fluorescence (VAR-MEAN) ([3]; compound 1 μM) | increase in the ADR fluorescence (VAR-MEAN) ([3]; compound 5 μM) | increase in the ADR fluorescence (VAR-MEAN) ([3]; compound […]) | T/C ([4]; VCR 0, compound 50 mg/kg i.p.) [%] | T/C ([4]; VCR 0, compound 150 mg/kg p.o.) [%] | T/C [4, 6] [%] | T/C [4, 7] [%] | Survivors on day 60 ([5]; VCR 0) | T/C ([5]; VCR 0) [%] | Survivors on day 60 ([5]; with VCR […] i.p.) | T/C ([5]; with VCR […] i.p.) [%]
1 | CCOC(=O)C1=C(COCCOCCNCc2cccc([N+](=O)[O-])c2)NC(C)=C(C(=O)OC)C1c1cccc(Cl)c1Cl (stereo not drawn) [Example 2, d-2-{[2-(2-(N-m-nitrobenzylamino)ethoxy)ethoxy]methyl}-4-(2,3-dichlorophenyl)-3-ethoxycarbonyl-5-methoxycarbonyl-6-methyl-1,4-dihydropyridine] | 1.5 | 1,478.2 | 2.2 | 389.5 |  |  |  |  |  |  |  |  |  |  | 
2 | CCOC(=O)C1=C(COCCOCCNCc2ccc(F)cc2)NC(C)=C(C(=O)OC)C1c1cccc(Cl)c1Cl (stereo not drawn) [Example 4, d-2-{[2-(2-(N-p-fluorobenzylamino)ethoxy)ethoxy]methyl}-4-(2,3-dichlorophenyl)-3-ethoxycarbonyl-5-methoxycarbonyl-6-methyl-1,4-dihydropyridine] | 23.0 | 3,962.3 | 26.0 | 473.7 | 2.0 | 18.6 | 7.0 | 100 | 110 | 176 | 181 |  |  |  | 
3 | CCOC(=O)C1=C(COCCOCCNCc2cccc(F)c2)NC(C)=C(C(=O)OC)C1c1cccc(Cl)c1Cl (stereo not drawn) [Example 5, d-2-{[2-(2-(N-m-fluorobenzylamino)ethoxy)ethoxy]methyl}-4-(2,3-dichlorophenyl)-3-ethoxycarbonyl-5-methoxycarbonyl-6-methyl-1,4-dihydropyridine] | 7.6 | 3,567.0 | 13.2 | 225.8 |  |  |  |  |  |  |  |  |  |  | 
4 | CCOC(=O)C1=C(COCCOCCNCc2ccccc2F)NC(C)=C(C(=O)OC)C1c1cccc(Cl)c1Cl (stereo not drawn) [Example 6, d-2-{[2-(2-(N-o-fluorobenzylamino)ethoxy)ethoxy]methyl}-4-(2,3-dichlorophenyl)-3-ethoxycarbonyl-5-methoxycarbonyl-6-methyl-1,4-dihydropyridine] | 9.6 | 4,340.9 | 15.2 | 159.1 |  |  |  |  |  |  |  |  |  |  | 
5 | CCOC(=O)C1=C(COCCOCCNCc2ccc(C#N)cc2)NC(C)=C(C(=O)OC)C1c1cccc(Cl)c1Cl (stereo not drawn) [Example 8, d-2-{[2-(2-(N-p-cyanobenzylamino)ethoxy)ethoxy]methyl}-4(2,3-dichlorophenyl)-3-ethoxycarbonyl-5-methoxycarbonyl-6-methyl-1,4-dihydropyridine] | 11.4 | 1,319.9 | 6.9 | 136.0 | 2.0 | 24.2 | 9.4 |  |  |  |  | 0/8 | 106 | 2/8 | 294
6 | CCOC(=O)C1=C(COCCOCCNCc2ccc(SC)cc2)NC(C)=C(C(=O)OC)C1c1cccc(Cl)c1Cl (stereo not drawn) [Example 9, d-2-{[2-(2-(N-p-methylthiobenzylamino)ethoxy)ethoxy]methyl}-4-(2,3-dichlorophenyl)-3-ethoxycarbonyl-5-methoxycarbonyl-6-methyl-1,4-dihydropyridine] | 1.2 | 560.3 | 2.4 | 99.0 |  |  |  |  |  |  |  |  |  |  | 
7 | CCOC(=O)C1=C(COCCOCCNCc2cccc3ccccc23)NC(C)=C(C(=O)OC)C1c1cccc(Cl)c1Cl (stereo not drawn) [Example 11, d-2-{[2-(2-(N-naphth-1-ylmethylamino)ethoxy)ethoxy]methyl}-4-(2,3-dichlorophenyl)-3-ethoxycarbonyl-5-methoxycarbonyl-6-methyl-1,4-dihydropyridine] | 1.0 | 2,442.4 | 1.7 | 336.0 | 0.2 | 31.0 | 18.2 | 100 | 99 | 146 | 177 |  |  |  | 
8 | CCOC(=O)C1=C(COCCOCCNCc2cccs2)NC(C)=C(C(=O)OC)C1c1cccc(Cl)c1Cl (stereo not drawn) [Example 13, d-2-{[2-(2-(N-thien-2-ylmethylamino)ethoxy)ethoxy]methyl)-4-(2,3-dichlorophenyl)-3-ethoxycarbonyl-5-methoxycarbonyl-6-methyl-1,4-dihydropyridine] | 19.4 | 4,141.7 | 12.3 | 165.1 |  |  |  |  |  |  |  |  |  |  | 
9 | CCOC(=O)C1=C(COCCOCCNC2c3ccccc3CCc3ccccc32)NC(C)=C(C(=O)OC)C1c1cccc(Cl)c1Cl (stereo not drawn) [Example 28, d-2-{[2-(2-[N-dibenzo[a,d]cyclohept-5-ylamino)ethoxy)ethoxy]methyl}-4-(2,3-dichlorophenyl)-3-ethoxycarbonyl-5-methoxycarbonyl-6-methyl-1,4-dihydropyridine] | 1.4 | 447.3 |  |  |  |  |  | 107 | 99 | 180 | 207 |  |  |  | 
10 | COC(=O)C1=C(C)NC(C)=C(C(=O)OC)C1c1ccccc1[N+](=O)[O-] [NIFEDIPINE, nifedipine, reference compound] |  |  |  |  | 0.0 | 0.0 | 0.0 |  |  |  |  |  |  |  | 
